For data set [1] the following is noted: carboxylic acid; cited from earlier work.
For the next data set, the system named is rabbit eyes. The following applies: topical eye drops, cited from earlier work.
Another data set deals with monkey eyes. Conditions: topical eye drops, cited from earlier work.
The subject of a further data set is glaucomatous monkey eyes. Conditions: ointment, highest concentration of 2.5% ECA, four glaucomatous monkey eyes; cited from earlier work.
A short description of data set [2]: Percent drug loading of ethacrynic acid prodrug microparticles (RP-HPLC). It is filed as physicochemical. On the procedure:
To determine the percent drug loading (% DL), 10 mg of particles was weighed into a glass scintillation vial and dissolved with 10 mL of MeCN:water (1:1, v/v). The solution was filtered through a 0.2 μm nylon syringe filter and the drug content was determined by RP-HPLC referenced against a standard calibration curve.

Data set [3] in a line: Drug release kinetics of Timolol and ethacrynic acid prodrugs from polymer microparticles. It is filed as physicochemical. As to the method:
The effect of polymer composition including monomer ratio and molecular weight, polymer end-groups (ester or acid), inherent viscosity and polymer blend ratios on particle degradation and drug release kinetics of Timolol-O-ethyl fumurate (17) was evaluated and is illustrated in FIG. 5. The rate of particle degradation was slowed and drug release was prolonged when the mole % of DL-lactide over glycolide was increased. By incorporating polymers with different monomer ratios (i.e., PLA, PLGA8515, PLGA525, PLGA5050 wherein 8515 refers to 85% DL-lactide and 15% glycolide) into the particles, it is possible to fine-tune the degradation rate of the particles to achieve a linear rate of drug release from the particles to minimize burst or lag and to extend the duration of release. […] The 78/22(PLA 5A/PLGA8515 4.5A) and 65/20/15(PLA 4A/PLGA6515 4.5A/PLGA5050 4A) polymer blends generated ideal particles for a 3-6 month linear release formulation. […] The rate of release was independent of the salt form. […] Thus, release rate is not solely dictated by the physicochemical properties of the linker, but rather must be attributed to a combination of parameters that may include linker type and site of linker conjugation.
FIG. 6 illustrates the release kinetics of ethacrynic acid-PLA(n=4)-ethyl ester (1) from PLGA microparticles. The drug was released over a period of approximately 66 days.
FIG. 8 and FIG. 9 illustrate the release kinetics of ethacrynic acid-PLA(n=4)-ethyl ester (1) and ethacrynic acid-PLA(n=6)-ethyl ester (25), respectively, from PLGA microparticles. The drug was released from a number of formulations over a period of greater than 90 days. […] Particles generated with 1% PVA in PBS was compared against particles generated in 1% PVA in water (FIG. 10).
Based upon these initial formulation screens, the formulation comprising of 1% mPEG-PLGA and 99% PLA100 4.5A:PLGA8515 5A (77:22) was selected as the lead formulation for ECA-PLA(n=4) (1) and ECA-PLA(n=6) (25) prodrugs. The particles were prepared in 1% PVA in water. The release profiles for the lead ECA-PLA(n=4) (1) and ECA-PLA(=6) (25) particle formulations are illustrated in FIG. 11.

Data set [4] in a line: Drug solubility in water, DMSO and DCM (HPLC of filtered supernatant). The following applies: thermodynamic from solid.
Description: For each test, approximately 5-10 mg was transferred to a 10 mL glass vial. Aqueous or organic solvent was added to each vial to achieve an overall concentration of 50 mg/mL. After vortexing aggressively for 2-3 minutes and sonicating in a bath sonicator for 5 minutes, undissolved drug was spun down at 1200 rpm for 5 minutes to generate a pellet. The supernatant was collected and filtered through a 0.2 μm nylon syringe filter into HPLC vials for drug content analysis. Drug concentration was determined by comparing against a standard calibration curve.
Data set [5] is described as follows: Degradation of ECA prodrugs heated at 60° C. in water/acetonitrile (HPLC-MS). It is filed as physicochemical. The following applies: 60° C. in 50/50 water (0.1% FA)/acetonitrile (0.1% FA). On the procedure:
Prodrugs of ECA were challenged by heating at 60° C. in 50/50 water (0.1% FA)/acetonitrile (0.1% FA), and the degradants were separated using a reverse phase HPLC equipped with a C-18 bonded stationary phase. The identification of various peaks was accomplished by mass spectrometry detector and retention time comparison with available standards.
Chromatographic separation of ethacrynic acid parent compounds and their PLA conjugated derivatives was achieved using an Agilent 1260 Infinity II LCMS equipped with an Waters Symmetry C18 column (5 μm, 4.6 mm×150 mm) as the stationary phase and acetonitrile/water as the mobile phase. The gradient separation method is outlined in Table 4. The analysis was performed at an injection volume of 10 μL, a flow rate of 1.2 mL/min and a detection wavelength of 230 nm at 25° C. Retention times for ethacrynic acid and PLA-conjugated compounds are illustrated in Table 5.
Table 6 illustrates the calculated mass and structure of all the individual intermediates and the parent compound. Calculated mass ions were extracted using a MS G6135B detector with positive and negative polarity acquisition between mass 100-1000, fragmentation at 250, gain at 1, threshold of 150, and speed of 2080 u/sec. Extracted ions and polarity for individual mass spectometry peak identification is outlined in Table 7.

The nature of data set [6]: Mean size of ethacrynic acid prodrug encapsulated microparticles. It is filed as physicochemical.
Data set [7] can be described thus: In vitro stability of ethacrynic acid prodrugs at 37° C. It is filed as physicochemical. Conditions: 37° C. The text has this: As evidenced, both prodrugs of ethacrynic acid degrade steadily over the 6 day period. As the ester linkages are hydrolyzed, the parent compound is generated in a linear rate. The rate of degradation to the parent compound is faster for the shorter […] in comparison to the degradation kinetics for ethacrynic acid-PLA(n=4)-ethyl ester (1).
Approximately 94% of the ECA-PLA(n=4) prodrug (1) has been converted to free ECA by day 6, in comparison to only 56% for ECA-PLA(n=6) (25). Also, by day 6, all the initial prodrug has been degraded into intermediates and free drug respectively.

Setting [8] is: PLA100 4.5A + 1% PEG-PLGA5050, polymer 200 mg/mL.
Where [9] appears, read: PLA100 4.5A + PLGA7525 6E (69:30) + 1% PEG-PLGA5050, polymer 200 mg/mL.
Where [10] appears, read: PLA100 4.5A + PLGA8515 5A (77:22) + 1% PEG-PLGA5050, polymer 200 mg/mL.
[11] abbreviates: PLA100 4.5A + PLGA8515 5A + PLGA5050 4A (64:20:15) + 1% PEG-PLGA5050, polymer 200 mg/mL.
Setting [12] is: PLA100 4.5A + PLGA8515 5A + PLGA5050 4A (64:30:5) + 1% PEG-PLGA5050, polymer 200 mg/mL.
Setting [13] is: PLGA7525 4A + 1% PEG-PLGA5050, polymer 200 mg/mL.

The term solubility denotes how much of the substance goes into solution per volume.

As to `C=C(CC)C(=O)c1ccc(OCC(=O)O)c(Cl)c1Cl` [ECA, ethacrynic acid], the pka entry in [1] is “approximately 2.8”. For the same molecule, the ocular adverse effects result with rabbit eyes (especially at higher doses) was “corneal edema and moderate diffuse superficial corneal erosion”; with monkey eyes (especially at higher doses), “corneal edema and moderate diffuse superficial corneal erosion”; in the data set with glaucomatous monkey eyes it was “mild eyelid edema, conjunctival hyperemia, and discharge”. For the same molecule, the “effect on IOP” value in the data set with rabbit eyes (rabbit eyes) and with monkey eyes (monkey eyes) was “effective in decreasing IOP” in each case.
On to `C=C(CC)C(=O)c1ccc(OCC(=O)O[C@@H](C)C(=O)O[C@@H](C)C(=O)O[C@@H](C)C(=O)O[C@@H](C)C(=O)O[C@@H](C)C(=O)O[C@@H](C)C(=O)OCC)c(Cl)c1Cl` [Compound 25, (S)-2-((S)-2-[(S)-2-((S)-2-(2-[2,3-Dichloro-4-(2-methylene-butyryl)-phenoxy]-acetoxy)-propionyloxy)-propionyloxy]-propionyloxy)-propionic acid (S)-1-((S)-1-ethoxycarbonyl-ethoxycarbonyl)-ethyl ester], for which the “% Drug loading” value in data set [2] (setting [8]) is on record as 13.83%; in [2] (setting [9]), 11.56%; in [2] (setting [10]) it was 12.29%; in data set [2] (setting [11]), 14.22%; in data set [2] (setting [12]), 13.53%; in data set [2] (setting [13]), 12.43%. The “% Drug loading” value came out at 13.5% in data set [2] (theoretical loading 15), 18.1% in data set [2] (theoretical loading 20), 27.4% in data set [2] (theoretical loading 30) and 38.2% in data set [2] (theoretical loading 40). Further, the “% Encapsulation Efficiency” value in data set [2] (theoretical loading 15) was determined as 90.0%; in [2] (theoretical loading 20), 90.5%; in data set [2] (theoretical loading 30), 91.3%; in [2] (theoretical loading 40), 95.5%. The “in vitro release profile of lead microparticle formulation” value in data set [3] (1% mPEG-PLGA and 99% PLA100 4.5A:PLGA8515 5A (77:22), prepared in 1% PVA in water, FIG. 11) is recorded as “much more linear release profile”. The “rate of drug release as a function of drug loading” value in data set [3] (microparticles with 13.5, 18.1, 27.4 and 38.2 % DL, FIG. 4) is reported as “rate of drug release increased with increasing drug loading”. The solubility is more than 50 mg/mL in data set [4] (DMSO, organic solvent or mixture) and less than 0.1 mg/mL in [4] (water). For the same molecule, in data set [5], the hydrolysis products entry is listed as “hydrolyze into five intermediates”. In addition, the Mean size was 27.62 um in data set [6] (setting [8]); 26.95 um in data set [6] (setting [9]); 27.88 um in [6] (setting [10]); 26.59 um in data set [6] (setting [11]); 26.27 um in data set [6] (setting [12]); 26.19 um in data set [6] (setting [13]). Besides, in data set [7] (6 days), the “rate of degradation of the prodrug” value is “degraded slightly slower”. Moreover, the “prodrug converted to free ECA by day 6” value in [7] (day 6) is 56%.

The values above are taken from patent US20200308162A1, “DRUGS AND COMPOSITIONS FOR OCULAR DELIVERY” (Graybug Vision, Inc., priority 2017, published 2020).
